From the supplement of paper PMC11061612 come the findings set out here.

Assay in all cases: Bliss excess, mean over the matrix (fraction); higher = more synergy
Test [1] deals with Becker (Low Grade Glioma). Summed up:
(§1)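 After 24 hours at 37°C and 5% CO2 in 1536-well plates, cells in DMEM/F12 or RPMI plus 10% FBS received two-drug dose matrices for 72 hours. Viability came from CellTiter-Glo 2.0 luminescence and was scaled as inhibition, anchored at 0 by vehicle wells and at 1 by blank wells. Combination Emax is taken as the second-highest inhibition in the matrix, and Bliss excess as the observed combination effect less EA + EB − EA·EB, with EA and EB the single-agent effects.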

Test [2] deals with AsPC-1 (Pancreatic Carcinoma). In short, it runs like this:
as §1

For test [3], the system named is OVTOKO (Ovarian Carcinoma). Summed up:
as §1

Test [4] concerns LAMA-84 (Chronic Myelogenous Leukemia). Summed up:
as §1

In the case of `CN(CCO)CC[C@H](CSc1ccccc1)Nc1ccc(S(=O)(=O)NC(=O)c2ccc(N3CCC([C@@H](O)c4ccccc4-c4ccc(Cl)cc4)CC3)cc2)cc1S(=O)(=O)C(F)(F)F` [AZD4320] + C[C@@H](Nc1cc(F)cc(F)c1)c1cc(C(=O)N(C)C)cc2c(=O)cc(N3CCOCC3)oc12 [AZD8186] (first compound max 1 µM, 7x7, partner max 3 µM), the Bliss excess in test [1] was 0.0186; in test [2] it was -0.0141; in test [3], 0.0019; in test [4], 0.0355.
As for `CN(CCO)CC[C@H](CSc1ccccc1)Nc1ccc(S(=O)(=O)NC(=O)c2ccc(N3CCC([C@@H](O)c4ccccc4-c4ccc(Cl)cc4)CC3)cc2)cc1S(=O)(=O)C(F)(F)F` [AZD4320] + CCN(CCO)CCCOc1ccc2c(Nc3cc(CC(=O)Nc4cccc(F)c4)[nH]n3)ncnc2c1 [AZD2811] (first compound max 1 µM, 7x7, partner max 1 µM), the Bliss excess in test [1] is -0.027; in test [2], -0.0294; in test [3] it was -0.0324; in test [4], 0.0319.
With `COc1nnc2ccc(N3CCC(c4ccc(OCCN5CCN(C)C(=O)[C@H]5C)cc4)CC3)nn12` [AZD5153] + CN(CC[C@H](CSC1=CC=CC=C1)NC2=C(C=C(C=C2)S(=O)(=O)NC(=O)C3=CC=C(C=C3)N4CCC(CC4)[C@H](C5=CC=CC=C5C6=CC=C(C=C6)Cl)O)S(=O)(=O)C(F)(F)F)CCO [AZD4320] (first compound max 1 µM, 7x7, partner max 1 µM), the Bliss excess in test [2] is -0.08; in test [3] it was 0.0926.
With `CN(C)CCCOc1ccc(-c2ccc3ncc4c(c3c2)n(C2CCOCC2)c(=O)n4C)cn1` [AZD0156] + C=CCn1c(=O)c2cnc(Nc3ccc(N4CCN(C)CC4)cc3)nc2n1-c1cccc(C(C)(C)O)n1 [AZD1775] (first compound max 1 µM, partner max 1 µM), the Bliss excess was -0.0409 in test [1], -0.0179 in test [2], -0.0255 in test [3] and -0.037 in test [4].
As to `CC1(C)CCC(CN2CCN(c3ccc(C(=O)NS(=O)(=O)c4ccc(NCC5CCOCC5)c([N+](=O)[O-])c4)c(Oc4cnc5[nH]ccc5c4)c3)CC2)=C(c2ccc(Cl)cc2)C1` [Venetoclax] + CCN(CCO)CCCOc1ccc2c(Nc3cc(CC(=O)Nc4cccc(F)c4)[nH]n3)ncnc2c1 [AZD2811] (first compound max 1 µM, 7x7, partner max 1 µM), the Bliss excess was 0.0074 in test [1], -0.0755 in test [2], -0.0183 in test [3] and -0.0036 in test [4].
`CC1(C)CCC(CN2CCN(c3ccc(C(=O)NS(=O)(=O)c4ccc(NCC5CCOCC5)c([N+](=O)[O-])c4)c(Oc4cnc5[nH]ccc5c4)c3)CC2)=C(c2ccc(Cl)cc2)C1` [Venetoclax] + Cc1cc2ncnn2cc1Nc1ncc2c(n1)n(C1CCOCC1)c(=O)n2C [AZD7648] (first compound max 1 µM, 7x7, partner max 10 µM): the Bliss excess in test [1] was 0.0128; in test [2] it was -0.0803; in test [3] it was -0.0518; in test [4], -0.0041.
Consider `CCN(CCO)CCCOc1ccc2c(Nc3cc(CC(=O)Nc4cccc(F)c4)[nH]n3)ncnc2c1` [AZD2811] + O=C(c1cc(Cc2n[nH]c(=O)c3ccccc23)ccc1F)N1CCN(C(=O)C2CC2)CC1 [Olaparib] (first compound max 1 µM, 7x7, partner max 10 µM), for which the Bliss excess in test [1] was -0.0371; in test [2], -0.0273; in test [3] it was -0.012; in test [4], 0.0269.
For `Cc1c2c(nn1C)CSCc1cc(n(C)n1)CSc1cc(c3ccccc3c1)OCCCc1c(C(=O)O)n(C)c3c-2c(Cl)ccc13` [AZD5991] + C[C@@H](Nc1cc(F)cc(F)c1)c1cc(C(=O)N(C)C)cc2c(=O)cc(N3CCOCC3)oc12 [AZD8186] (first compound max 1 µM, 7x7, partner max 3 µM), the Bliss excess in test [1] was 0.0192; in test [2] it was -0.0414; in test [3], -0.0196; in test [4], -0.0037.
As to `CCc1c2c(nc3ccc(O)cc13)-c1cc3c(c(=O)n1C2)COC(=O)[C@]3(O)CC` [SN-38] + O=C(c1cc(Cc2n[nH]c(=O)c3ccccc23)ccc1F)N1CCN(C(=O)C2CC2)CC1 [Olaparib] (first compound max 0.3 µM, 7x7, partner max 10 µM), the Bliss excess was 0.083 in test [1], -0.0277 in test [2] and 0.0833 in test [4].
For `CC1(C)CCC(CN2CCN(c3ccc(C(=O)NS(=O)(=O)c4ccc(NCC5CCOCC5)c([N+](=O)[O-])c4)c(Oc4cnc5[nH]ccc5c4)c3)CC2)=C(c2ccc(Cl)cc2)C1` [Venetoclax] + C[C@@H]1COCCN1C2=NC(=NC(=C2)C3(CC3)[S@](=N)(=O)C)C4=C5C=CNC5=NC=C4 [AZD6738] (first compound max 1 µM, 7x7, partner max 10 µM), the Bliss excess in test [1] is -0.0388; in test [2], -0.0301; in test [3], -0.0395; in test [4] it was -0.0263.
The like results for `COc1cccc(OCCCN)c1-c1cc(Nc2cnc(C#N)cn2)n[nH]1` [Prexasertib] + O=C(c1cc(Cc2n[nH]c(=O)c3ccccc23)ccc1F)N1CCN(C(=O)C2CC2)CC1 [Olaparib] (first compound max 1 µM, 7x7, partner max 10 µM) were, in that order, -0.0257, -0.0956, -0.035 and -0.0307.
On to `CC1(C)CCC(CN2CCN(c3ccc(C(=O)NS(=O)(=O)c4ccc(NCC5CCOCC5)c([N+](=O)[O-])c4)c(Oc4cnc5[nH]ccc5c4)c3)CC2)=C(c2ccc(Cl)cc2)C1` [Venetoclax] + C=CCn1c(=O)c2cnc(Nc3ccc(N4CCN(C)CC4)cc3)nc2n1-c1cccc(C(C)(C)O)n1 [AZD1775] (first compound max 1 µM, partner max 1 µM), for which the Bliss excess in test [1] was 0.0593; in test [2] it was -0.0879; in test [3], -0.0903; in test [4] it was 0.0884.
With `CC(=O)c1c(C)c2cnc(Nc3ccc(N4CCNCC4)cn3)nc2n(C2CCCC2)c1=O` [Palbociclib] + CN(CC[C@H](CSC1=CC=CC=C1)NC2=C(C=C(C=C2)S(=O)(=O)NC(=O)C3=CC=C(C=C3)N4CCC(CC4)[C@H](C5=CC=CC=C5C6=CC=C(C=C6)Cl)O)S(=O)(=O)C(F)(F)F)CCO [AZD4320] (first compound max 10 µM, 7x7, partner max 1 µM), the Bliss excess was -0.129 in test [2] and -0.0621 in test [3].
In the case of `Cc1c2c(nn1C)CSCc1cc(n(C)n1)CSc1cc(c3ccccc3c1)OCCCc1c(C(=O)O)n(C)c3c-2c(Cl)ccc13` [AZD5991] + C=CCn1c(=O)c2cnc(Nc3ccc(N4CCN(C)CC4)cc3)nc2n1-c1cccc(C(C)(C)O)n1 [AZD1775] (first compound max 1 µM, partner max 1 µM), the Bliss excess was -0.0319 in test [1], 0.0293 in test [2], 0.0474 in test [3] and 0.0422 in test [4].
Take `CN(CCO)CC[C@H](CSc1ccccc1)Nc1ccc(S(=O)(=O)NC(=O)c2ccc(N3CCC([C@@H](O)c4ccccc4-c4ccc(Cl)cc4)CC3)cc2)cc1S(=O)(=O)C(F)(F)F` [AZD4320] + C=CCn1c(=O)c2cnc(Nc3ccc(N4CCN(C)CC4)cc3)nc2n1-c1cccc(C(C)(C)O)n1 [AZD1775] (first compound max 1 µM, partner max 1 µM): the Bliss excess was 0.0046 in test [1], 0.047 in test [2], 0.0002 in test [3] and 0.083 in test [4].
With `CN(CCO)CC[C@H](CSc1ccccc1)Nc1ccc(S(=O)(=O)NC(=O)c2ccc(N3CCC([C@@H](O)c4ccccc4-c4ccc(Cl)cc4)CC3)cc2)cc1S(=O)(=O)C(F)(F)F` [AZD4320] + Cc1cc2ncnn2cc1Nc1ncc2c(n1)n(C1CCOCC1)c(=O)n2C [AZD7648] (first compound max 1 µM, 7x7, partner max 10 µM), the Bliss excess in test [1] is -0.0211; in test [2] it was -0.0575; in test [3] it was -0.0393; in test [4] it was -0.0161.
Consider `Cc1c2c(nn1C)CSCc1cc(n(C)n1)CSc1cc(c3ccccc3c1)OCCCc1c(C(=O)O)n(C)c3c-2c(Cl)ccc13` [AZD5991] + CN(C)CCCOc1ccc(-c2ccc3ncc4c(c3c2)n(C2CCOCC2)c(=O)n4C)cn1 [AZD0156] (first compound max 1 µM, 7x7, partner max 1 µM), for which the Bliss excess was -0.0128 in test [1], -0.0137 in test [2], 0.0042 in test [3] and -0.0051 in test [4].
For the compound `CCN(CCO)CCCOc1ccc2c(Nc3cc(CC(=O)Nc4cccc(F)c4)[nH]n3)ncnc2c1` [AZD2811] + C[C@@H]1COCCN1C2=NC(=NC(=C2)C3(CC3)[S@](=N)(=O)C)C4=C5C=CNC5=NC=C4 [AZD6738] (first compound max 1 µM, 7x7, partner max 10 µM), the Bliss excess in test [1] was -0.0343; in test [2], -0.0164; in test [3], -0.0305; in test [4], -0.0175.
With `Cc1c2c(nn1C)CSCc1cc(n(C)n1)CSc1cc(c3ccccc3c1)OCCCc1c(C(=O)O)n(C)c3c-2c(Cl)ccc13` [AZD5991] + C[C@@H]1COCCN1C2=NC(=NC(=C2)C3(CC3)[S@](=N)(=O)C)C4=C5C=CNC5=NC=C4 [AZD6738] (first compound max 1 µM, 7x7, partner max 10 µM), the Bliss excess in test [1] was 0.0152; in test [2], 0.0026; in test [3], 0.0404; in test [4] it was -0.0056.
For the compound `C[C@@H]1COCCN1c1cc(C2([S@](C)(=N)=O)CC2)nc(-c2ccnc3[nH]ccc23)n1` [AZD6738] + O=C(c1cc(Cc2n[nH]c(=O)c3ccccc23)ccc1F)N1CCN(C(=O)C2CC2)CC1 [Olaparib] (first compound max 10 µM, 7x7, partner max 10 µM), the Bliss excess in test [1] is -0.0077; in test [2], -0.027; in test [3], 0.0182; in test [4] it was 0.0233.
Turning to `COc1cccc(OCCCN)c1-c1cc(Nc2cnc(C#N)cn2)n[nH]1` [Prexasertib] + C=CCn1c(=O)c2cnc(Nc3ccc(N4CCN(C)CC4)cc3)nc2n1-c1cccc(C(C)(C)O)n1 [AZD1775] (first compound max 1 µM, partner max 1 µM), the Bliss excess is 0.0374 in test [1], -0.0189 in test [2], -0.0519 in test [3] and 0.0731 in test [4].
Take `Cc1c2c(nn1C)CSCc1cc(n(C)n1)CSc1cc(c3ccccc3c1)OCCCc1c(C(=O)O)n(C)c3c-2c(Cl)ccc13` [AZD5991] + CC1(C)CCC(CN2CCN(c3ccc(C(=O)NS(=O)(=O)c4ccc(NCC5CCOCC5)c([N+](=O)[O-])c4)c(Oc4cnc5[nH]ccc5c4)c3)CC2)=C(c2ccc(Cl)cc2)C1 [Venetoclax] (first compound max 1 µM, 7x7, partner max 1 µM): the Bliss excess in test [1] is -0.0033; in test [2] it was -0.0698; in test [3] it was -0.0027; in test [4], -0.0185.
The matching figures for `COc1cc2c(cc1OCCCCCOc1cc3c(cc1OC)C(=O)N1C=C(C)C[C@H]1C=N3)N=C[C@@H]1CC(C)=CN1C2=O` [SG3199] + O=C(c1cc(Cc2n[nH]c(=O)c3ccccc23)ccc1F)N1CCN(C(=O)C2CC2)CC1 [Olaparib] (first compound max 0.001 µM, 7x7, partner max 10 µM): -0.0361, -0.0535, -0.0476 and -0.0015.
Turning to `C[C@@H](c1ccc2nccn2c1)n1nnc2ncc(-c3cnn(C)c3)nc21` [Savolitinib] + CN(CC[C@H](CSC1=CC=CC=C1)NC2=C(C=C(C=C2)S(=O)(=O)NC(=O)C3=CC=C(C=C3)N4CCC(CC4)[C@H](C5=CC=CC=C5C6=CC=C(C=C6)Cl)O)S(=O)(=O)C(F)(F)F)CCO [AZD4320] (first compound max 1 µM, 7x7, partner max 1 µM), the Bliss excess in test [2] is -0.0896; in test [3] it was -0.0718.
